From patent publication US6723716B1, “7-acylamino-3-heteroarylthio-3-cephem carboxylic acid antibiotics and prodrugs thereof” (Essential Therapeutics, Inc., priority 1999, dated 2004)
Values after ≈ are worked out from the molar mass of the structure shown.

Columns and labels:
[1] = tested on: S. aureus ATCC29213; assay: Human serum binding effect: MIC with and without human serum; type: cell-based, Staphylococcus aureus; conditions: 1:1 human serum:MHB
Procedure, shortened: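 Serum binding was estimated as the ratio of S. aureus ATCC29213 MIC in 1:1 human serum:Mueller-Hinton broth to MIC without serum. Compounds were serially 2-fold diluted, and wells received an early-log-phase inoculum at 1×10^6 CFU/mL final. Inoculum size was checked by colony counts on TSA after overnight incubation at 35 °C.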

[2] = tested on: E. faecium VanA (Van^R); assay: Broth microdilution MIC (NCCLS); type: cell-based; conditions: Enterococcus faecium
Method: (§1) Compounds were evaluated for antimicrobial activity against a panel of bacterial strains using a broth microdilution assay performed as recommended by the NCCLS (1). The minimum inhibitory concentration (MIC) was defined as the lowest concentration of drug which prevented the growth of the bacteria.
(§2) For this primary panel, the assay was performed in Mueller-Hinton Broth (MHB) with a final bacterial inoculum of 5×10^5 CFU/mL (from an early-log phase culture) and a final volume of 100 μL. Control drugs, including imipenem, vancomycin, Penicillin G, dicloxacillin (vs. MSSA ATCC29213 only), and new compounds were prepared at a concentration equivalent to 2-fold the desired final concentration. Dilution of compounds were prepared directly in the plates by serial 2-fold dilution using a multichannel pipette. Positive and negative growth control were included in each plate.
(§3) The bacterial inocula were prepared as follows. For each strain one isolated colony was used to inoculate a volume of 8 mL of Mueller-Hinton broth and these cultures were incubated overnight (20 h) at 35° C. in a shaking incubator. At the exception of Enterococcus strains, culture were then diluted 1:10 and allowed to grow for an additional one hour at 35° C. in a shaking incubator. The inocula were prepared by diluting the early log-phase (1 h) cultures 1:1000 with fresh Mueller-Hinton broth. E. faecium and E. faecalis were prepared by diluting overnight cultures 1:333 and 1:666, respectively, with fresh Mueller-Hinton broth. A volume of 50 μL of the inocula was added to each well. […] The exact inocula were determined by applying 10 μL of 10-fold serial dilution of the bacterial suspensions on TSA. After overnight incubation at 35° C., colony forming units were manually counted.
(§4) Microtiter plates were incubated during 24 h at 35° C. and were read using a microtiterplate reader (Molecular Devices) at 650 nm as well as by visual observation using a microtiterplate reading mirror.

[3] = tested on: S. aureus ATCC 29213; assay: Broth microdilution MIC (NCCLS); type: cell-based; conditions: Staphylococcus aureus, ATCC29213; S. aureus ATCC 29213; Mueller-Hinton broth, 24 h at 35° C.; read-out: MIC
Method: as §1, §2, §3, §4

[4] = tested on: E. coli ATCC25992; assay: Broth microdilution MIC (NCCLS); type: cell-based; conditions: Escherichia coli
Method: as §1, §2, §3, §4

[5] = tested on: E. faecium A491 (Amp^R); assay: Broth microdilution MIC (NCCLS); type: cell-based; conditions: Enterococcus faecium
Method: as §1, §2, §3, §4

[6] = tested on: S. aureus ATCC 13709 (Meth^S); assay: Broth microdilution MIC (NCCLS); type: cell-based; conditions: Staphylococcus aureus, ATCC13709, S. aureus ATCC 13709 (Meth^S); read-out: MIC
Method: as §1, §2, §3, §4

[7] = tested on: S. aureus PC1 (Meth^S)(lac^+); assay: Broth microdilution MIC (NCCLS); type: cell-based; conditions: Staphylococcus aureus
Method: as §1, §2, §3, §4

[8] = tested on: S. aureus ATCC 33593 (Meth^R); assay: Broth microdilution MIC (NCCLS); type: cell-based; conditions: Staphylococcus aureus, ATCC33593
Method: as §1, §2, §3, §4

[9] = tested on: E. faecalis ATCC 29212; assay: Broth microdilution MIC (NCCLS); type: cell-based; conditions: Enterococcus faecalis, ATCC29212
Method: as §1, §2, §3, §4

[10] = tested on: E. faecalis VanB (Van^R); assay: Broth microdilution MIC (NCCLS); type: cell-based; conditions: Enterococcus faecalis
Method: as §1, §2, §3, §4

[11] = tested on: P. aeruginosa ATCC 27853; assay: Broth microdilution MIC (NCCLS); type: cell-based; conditions: Pseudomonas aeruginosa, ATCC27853
Method: as §1, §2, §3, §4

[12] = tested on: E. faecium ATCC 35667; assay: Broth microdilution MIC (NCCLS); type: cell-based; conditions: Enterococcus faecium, ATCC35667
Method: as §1, §2, §3, §4

[13] = tested on: S. aureus Col (Meth^R)(lac^−); assay: Broth microdilution MIC (NCCLS); type: cell-based; conditions: Staphylococcus aureus
Method: as §1, §2, §3, §4

[14] = tested on: S. aureus Spain #356 (Meth^R); assay: Broth microdilution MIC (NCCLS); type: cell-based; conditions: Staphylococcus aureus, 24 h
Method: as §1, §2, §3, §4

[15] = tested on: S. aureus 76 (Meth^R)(lac^+); assay: Broth microdilution MIC (NCCLS); type: cell-based; conditions: Staphylococcus aureus
Method: as §1, §2, §3, §4

[16] = tested on: S. aureus Col8A (Meth^S)(lac^−); assay: Broth microdilution MIC (NCCLS); type: cell-based; conditions: Staphylococcus aureus
Method: as §1, §2, §3, §4

[17] = tested on: S. haemolyticus 05 (Meth^R); assay: Broth microdilution MIC (NCCLS); type: cell-based; conditions: Staphylococcus haemolyticus
Method: as §1, §2, §3, §4

SMILES | Human serum binding effect (ratio of MIC value determined with and without human serum added) [1] | MIC [2] [µg/mL] | MIC [3] [µg/mL] | MIC [4] [µg/mL] | MIC [5] [µg/mL] | MIC [6] [µg/mL] | MIC [7] [µg/mL] | MIC [8] [µg/mL] | MIC [9] [µg/mL] | MIC [10] [µg/mL] | MIC [11] [µg/mL] | MIC [12] [µg/mL] | MIC [13] [µg/mL] | MIC [14] [µg/mL] | MIC [15] [µg/mL] | MIC [16] [µg/mL] | MIC [17] [µg/mL]
NCCSCc1nnc(SC2=C(C(=O)O)N3C(=O)[C@@H](NC(=O)/C(=N\O)c4nc(N)sc4Cl)[C@H]3SC2)s1 [Cmpd 10, (7R)-7-[(Z)-2-(2-amino-5-chlorothiazol-4-yl)-2-(hydroxyimino)acetamido]-3-(2-aminoethylthiomethyl-1,3,4-thiadiazol-5-ylthio)-3-cephem-4-carboxylic acid] | 1 | 2 (≈ 3.28 µM) | 0.5 (≈ 0.821 µM) | 1 (≈ 1.64 µM) | 8 (≈ 13.1 µM) | 0.13 (≈ 0.213 µM) | 0.5 (≈ 0.821 µM) | 2 (≈ 3.28 µM) | 0.13 (≈ 0.213 µM) | 0.25 (≈ 0.41 µM) | 16 (≈ 26.3 µM) | 1 (≈ 1.64 µM) | 2 (≈ 3.28 µM) | 4 (≈ 6.57 µM) | 2 (≈ 3.28 µM) | 0.25 (≈ 0.41 µM) | 4 (≈ 6.57 µM)
NCCSCc1nsc(SC2=C(C(=O)O)N3C(=O)[C@@H](NC(=O)/C(=N\O)c4nc(N)sc4Cl)[C@H]3SC2)n1 [Cmpd 12, (7R)-7-[(Z)-2-(2-amino-5-chlorothiazol-4-yl)-2-(hydroxyimino)acetamido]-3-[3-(2-aminoethylthiomethyl)-1,2,4-thiadiazol-5-ylthio]-3-cephem-4-carboxylic acid] | 256 | 1 (≈ 1.64 µM) | 0.5 (≈ 0.821 µM) | 4 (≈ 6.57 µM) | 4 (≈ 6.57 µM) | 0.25 (≈ 0.41 µM) | 0.13 (≈ 0.213 µM) | 1 (≈ 1.64 µM) | – | 0.13 (≈ 0.213 µM) | > 32 | 0.5 (≈ 0.821 µM) | 1 (≈ 1.64 µM) | 1 (≈ 1.64 µM) | 1 (≈ 1.64 µM) | 0.5 (≈ 0.821 µM) | 2 (≈ 3.28 µM)
